Assay results: patent US20050180954A1, “Drug for treating bone disorders” (priority 1995, published 2005)

How the values were obtained:
Format in all cases: cell-based, mouse
MC3T3-E1 cells [1] = assay: Mineralization of murine osteoblasts, Von Kossa stain (in vitro multiple administration); conditions: MC3T3-E1, twice administration, Von Kossa on Day 9
Procedure: MC3T3-E1 cells were placed in each well in 24-well plates in an amount of 30,000 cells/well and cultured to confluency. The medium was removed and fresh α-MEM containing 10% JCS, 50 μg/ml of L-ascorbic acid and 10 mM β-glycerophosphate was added in an amount of 0.9 ml/well, followed by adding 0.1 ml/well of medium containing varying concentration of IFN. The medium was replaced with the medium containing the respective concentration of IFN every 4 days. On Day 9 from the first treatment with IFN, Von Kossa stain was performed to visualize the calcified foci.

[2] = system: osteoclast like cells from bone marrow cells of mice of ddy strain; assay: Formation of osteoclast like cells from bone marrow cells of mice of ddy strain
Procedure: Bone marrow cells were prepared in accordance with the method by Takahashi et al (Takahashi, N. et al., Endocrinology, 122, 1373, 1988). Male mice of ddy strain of 7 weeks old were exanguinated to death under ether anesthesia and the femur and the tibia of hind legs were collected from each mouse. The connective tissues on the surfaces of the bones were carefully removed, and both ends of each bone were cut off with scissors. The bone marrow cells were suspended in α-Minimum Essential Medium (α-MEM, Nissui Pharmaceuticals Co.) containing 10% pre-colostrum new born calf serum (Mitsubishi Chemical, hereinafter referred to as “JCS” for short) and the suspension was flushed out through a 25 G needle attached to a syringe to collect the suspension in a centrifugal tube. The collected suspension was washed by centrifugation in the same medium at 2000 rpm at 4° C. for 5 minutes. The precipitated cells were dispersed in the above-mentioned medium and the washing by centrifugation was repeated twice, thereby preparing bone marrow cells. Murine IFN-α (hereinafter referred to as “MuIFNα” for short), Lot. B13010, 106 units/ml/vial (Calbiochem-Novabiochem International, San Diego, Calif.), murine IFN-β (hereinafter referred to as “MuIFNβ” for short), Lot M-0034, 10 units/ml/vial (Toray Industries, Inc.) and murine IFNγ (hereinafter referred to as “MuIFNγ” for short), Lot 254F3, 2.06×10^6 units/ml (Genentech, Calif.) were respectively dissolved in 10% JCS-containing α-MEM (Nissui Pharmaceuticals Co.) to the desired concentrations. Active vitamin D3 ([…], Wako Pure Chemical Industries, Ltd., hereinafter referred to as “Vit D3” for short) was dissolved in argon-saturated ethanol, and the obtained solution was diluted so as to attain the final ethanol concentration of 0.1% in all of the culture systems.
The number of viable bone marrow cells was counted using tripam blue dye exclusion test and the bone marrow cells were diluted with α-MEM containing 10% JCS, 10^−8M Vit D3, 10^−7 M dexamethasone to a population density of 1.5×10^6 cells/ml, followed by placing the resulting suspension in each well in 24-well plates in an amount of 0.45 ml/well. To each well, 50 μl of the medium containing varying concentration of IFN was added to make the volume to 0.5 ml/well and culturing was begun. At every three days, 0.4 ml of the culture medium was removed from each well and 0.4 ml of fresh medium (the above-mentioned medium containing the respective concentration of IFN) was added. On Day 8 from the beginning of the culturing, the medium was removed and the cells were fixed with mixed solution of ethyl alcohol and diethyl ether (1:1) and the cells were stained with tartrate resistant acid phosphatase (TRAP), followed by counting TRAP positive multinuclear cells with a phase contrast microscope. […] The inhibition effect of IFNγ was stronger than that of IFNβ. That is, the inhibition concentration IC50 of IFNγ was not more than 0.1 units/ml, and that of IFNβ was 0.2 units/ml.
The effects of the three murine IFNs, that is, MuIFNβ, γ and α in terms of abilities to inhibit formation of osteoclast like cells from bone marrow cells in mice of ddy strain were compared. The test was carried out as in Example 1. All of the murine IFNs inhibited the formation of osteoclast like cells, and the effect was strong in the order of γ, β and α. […] Thus, the activity of IFNα to inhibit formation of osteoclasts was about 1/20 of that of IFNβ and about not more than 1/100 of that of IFNγ.

MC3T3-E1 cells [3] = assay: Mineralization of murine osteoblasts, Von Kossa stain (in vitro single administration); conditions: Day 14
Procedure: As the parameters for evaluation of differentiation ability, alkaline phosphatase (ALPase) and mineralization were employed. Detection of alkaline phosphatase which is a marker of differentiation of osteoblasts was carried out on Day 8 from the beginning of the culturing by staining method. Evaluation of mineralization was carried out as follows. That is, MC3T3-E1 cells were placed in each well of 24-well plates in an amount of 50,000 cells/ml (10 times in the case of anti-cell test in Example 3). On Day 4, after confirming that the cells sufficiently reached confluency, the medium was discarded and fresh α-MEM containing 10% JCS, 50 μg/ml of L-ascorbic acid and 10 mM β-glycerophosphate was added in an amount of 0.9 ml/well, followed by adding medium containing varying concentration of IFN. Four days later, the medium was replaced with IFN-free medium, and the medium was replaced with IFN-free medium every 4 days. On Day 14, Von Kossa stain was performed to visualize the calcified foci. Expression of alkaline phosphatase activity which is a differentiation marker is an indispensable step to the subsequent mineralization.

Substance: MuIFNβ: murine interferon β, Lot M-0034, prepared by Toray Industries, Inc. by genetic engineering technique
- number of calcified foci and intensity of staining (MC3T3-E1 cells [1]): dose dependently increased
- inhibition of formation of osteoclast like cells ([2]; Example 1, Day 8, TRAP positive multinuclear cells): strongly inhibited formation of osteoclast like cells
- inhibition concentration IC50 of formation of osteoclast like cells ([2]; Example 1, Vit D3 + dexamethasone, Day 8, TRAP positive multinuclear cells): 0.2 units/ml
- IC50 of inhibition of formation of osteoclast like cells ([2]; Example 8 comparison of three murine IFNs): about 0.9 units/ml
- influence on mineralization (calcified foci, Von Kossa stain) (MC3T3-E1 cells [3]): mineralization proceeded without substantial influence
